Experimental data reported in article PMC5218480 (PLoS ONE, 2017).

System: MV-4-11 cells
Experiment: Gene expression microarray analysis (Affymetrix PrimeView) and GSEA
Type: cell-based, human
Set-up: RFU PODN (11730768_x_at) / Fold change /veh PODN (11730768_x_at) / RFU LINC00158 (11744669_a_at) / Fold change /veh LINC00158 (11744669_a_at) / RFU DUSP10 (11751237_a_at) / Fold change /veh DUSP10 (11751237_a_at) / RFU ID3 (11757404_x_at) / Fold change /veh ID3 (11757404_x_at) / RFU PLEKHG5 (11737974_s_at) / Fold change /veh PLEKHG5 (11737974_s_at) / RFU LRRC4B (11730491_at) / Fold change /veh LRRC4B (11730491_at) / RFU GIMAP4 (11747438_a_at) / Fold change /veh GIMAP4 (11747438_a_at) / RFU KRT8 (11758183_x_at) / Fold change /veh KRT8 (11758183_x_at) / RFU CNN1 (11734310_a_at) / Fold change /veh CNN1 (11734310_a_at) / RFU VPS37D (11726825_at) / Fold change /veh VPS37D (11726825_at) / RFU C10orf10 (11716522_x_at) / Fold change /veh C10orf10 (11716522_x_at) / RFU KIR2DL2 /// KIR2DL4 /// KIR2DL5A /// KIR2DL5B /// KIR2DS1 /// KIR2DS2 /// KIR2DS3 /// KIR2DS4 /// KIR3DL3 /// KIR3DL3 /// KIR3DS1 (11738374_at) / Fold change /veh KIR2DL2 /// KIR2DL4 /// KIR2DL5A /// KIR2DL5B /// KIR2DS1 /// KIR2DS2 /// KIR2DS3 /// KIR2DS4 /// KIR3DL3 /// KIR3DL3 /// KIR3DS1 (11738374_at) / RFU C1QL1 (11718748_at) / Fold change /veh C1QL1 (11718748_at) / RFU TMPRSS4 (11747572_a_at) / Fold change /veh TMPRSS4 (11747572_a_at) / RFU HAMP (11756126_x_at) / Fold change /veh HAMP (11756126_x_at) / RFU RNFT2 (11725882_a_at) / Fold change /veh RNFT2 (11725882_a_at) / RFU NR4A2 (11747474_a_at) / Fold change /veh NR4A2 (11747474_a_at) / RFU ABCC12 (11746883_a_at) / Fold change /veh ABCC12 (11746883_a_at) / RFU TMEM136 (11760407_x_at) / Fold change /veh TMEM136 (11760407_x_at) / RFU CLDN22 /// WWC2 (11732394_at) / Fold change /veh CLDN22 /// WWC2 (11732394_at) / RFU HLA-DPB1 (11760878_x_at) / Fold change /veh HLA-DPB1 (11760878_x_at) / RFU SPINT1 (11716480_a_at) / Fold change /veh SPINT1 (11716480_a_at) / RFU GAP43 (11754022_s_at) / Fold change /veh GAP43 (11754022_s_at) / RFU A4GNT (11735810_at) / Fold change /veh A4GNT (11735810_at) / RFU PRB3 (11715151_x_at) / Fold change /veh PRB3 (11715151_x_at) / RFU TUBB4B (11761932_at) / Fold change /veh TUBB4B (11761932_at) / RFU CAPN14 (11732068_a_at) / Fold change /veh CAPN14 (11732068_a_at) / RFU TMCC2 (11721928_a_at) / Fold change /veh TMCC2 (11721928_a_at) / RFU IRGQ (11745062_a_at) / Fold change /veh IRGQ (11745062_a_at) / RFU FAM174B (11720279_a_at) / Fold change /veh FAM174B (11720279_a_at) / RFU TMPRSS4 (11748680_a_at) / Fold change /veh TMPRSS4 (11748680_a_at) / RFU FAM212B (11763350_a_at) / Fold change /veh FAM212B (11763350_a_at) / RFU PLEKHG5 (11743358_a_at) / Fold change /veh PLEKHG5 (11743358_a_at) / RFU ZSCAN30 (11745921_a_at) / Fold change /veh ZSCAN30 (11745921_a_at) / RFU CMKLR1 (11741424_a_at) / Fold change /veh CMKLR1 (11741424_a_at) / RFU LOC101060620 /// MAPK8IP1 (11723275_at) / Fold change /veh LOC101060620 /// MAPK8IP1 (11723275_at) / RFU SPTSSB (11747773_x_at) / Fold change /veh SPTSSB (11747773_x_at) / RFU PRSS12 (11739890_at) / Fold change /veh PRSS12 (11739890_at) / RFU BIN1 (11741810_x_at) / Fold change /veh BIN1 (11741810_x_at) / RFU WNT11 (11732464_a_at) / Fold change /veh WNT11 (11732464_a_at) / RFU C10orf10 (11716521_a_at) / Fold change /veh C10orf10 (11716521_a_at) / RFU C5orf56 (11738089_at) / Fold change /veh C5orf56 (11738089_at) / RFU CYB561 (11721691_x_at) / Fold change /veh CYB561 (11721691_x_at) / RFU ANKRD19P (11752326_a_at) / Fold change /veh ANKRD19P (11752326_a_at) / RFU OR2T12 /// OR2T33 /// OR2T8 (11738714_s_at) / Fold change /veh OR2T12 /// OR2T33 /// OR2T8 (11738714_s_at) / RFU VCAN (11748164_a_at) / Fold change /veh VCAN (11748164_a_at) / RFU JSRP1 (11732532_at) / Fold change /veh JSRP1 (11732532_at) / RFU KRTAP10-11 (11738290_x_at) / Fold change /veh KRTAP10-11 (11738290_x_at) / RFU MYO3A (11730013_a_at) / Fold change /veh MYO3A (11730013_a_at) / RFU EBF3 (11725865_a_at) / Fold change /veh EBF3 (11725865_a_at) / RFU CAMK2N1 (11719241_x_at) / Fold change /veh CAMK2N1 (11719241_x_at) / RFU C5orf56 (11738088_a_at) / Fold change /veh C5orf56 (11738088_a_at) / RFU OLFML3 (11715873_a_at) / Fold change /veh OLFML3 (11715873_a_at) / RFU LOC100653217 /// NTM (11731650_a_at) / Fold change /veh LOC100653217 /// NTM (11731650_a_at) / RFU MAPK11 (11762145_a_at) / Fold change /veh MAPK11 (11762145_a_at) / RFU FIZ1 (11724087_x_at) / Fold change /veh FIZ1 (11724087_x_at) / RFU OASL (11726364_x_at) / Fold change /veh OASL (11726364_x_at) / RFU SOX15 (11748057_x_at) / Fold change /veh SOX15 (11748057_x_at) / RFU CD79A (11719716_a_at) / Fold change /veh CD79A (11719716_a_at) / RFU HIST1H1D (11736915_at) / Fold change /veh HIST1H1D (11736915_at) / RFU CASKIN2 (11723855_a_at) / Fold change /veh CASKIN2 (11723855_a_at) / RFU LOC730098 (11760151_x_at) / Fold change /veh LOC730098 (11760151_x_at) / RFU OR4N2 (11742367_at) / Fold change /veh OR4N2 (11742367_at) / RFU PRRT2 (11749266_a_at) / Fold change /veh PRRT2 (11749266_a_at) / RFU SNX32 (11753110_a_at) / Fold change /veh SNX32 (11753110_a_at) / RFU CDHR5 (11726645_a_at) / Fold change /veh CDHR5 (11726645_a_at) / RFU RCAN1 (11760418_a_at) / Fold change /veh RCAN1 (11760418_a_at) / RFU FAM167A (11723789_a_at) / Fold change /veh FAM167A (11723789_a_at) / RFU FAM26E (11764081_at) / Fold change /veh FAM26E (11764081_at) / RFU ISYNA1 (11749810_s_at) / Fold change /veh ISYNA1 (11749810_s_at) / RFU ACY1 (11761880_at) / Fold change /veh ACY1 (11761880_at) / RFU 11764098_at / Fold change /veh 11764098_at / RFU SAMD14 (11745864_x_at) / Fold change /veh SAMD14 (11745864_x_at) / RFU NPB (11741838_a_at) / Fold change /veh NPB (11741838_a_at) / RFU TMPRSS6 (11731388_a_at) / Fold change /veh TMPRSS6 (11731388_a_at) / RFU KRTAP10-2 (11738614_at) / Fold change /veh KRTAP10-2 (11738614_at) / RFU ARHGAP8 /// PRR5-ARHGAP8 (11727945_x_at) / Fold change /veh ARHGAP8 /// PRR5-ARHGAP8 (11727945_x_at) / RFU KRTAP5-7 /// NADSYN1 (11734609_at) / Fold change /veh KRTAP5-7 /// NADSYN1 (11734609_at) / RFU RASL12 (11751679_a_at) / Fold change /veh RASL12 (11751679_a_at) / RFU CDKN2B (11736163_a_at) / Fold change /veh CDKN2B (11736163_a_at) / RFU PRF1 (11729649_at) / Fold change /veh PRF1 (11729649_at) / RFU, ZNF638 /// ZNF638-IT1 / Fold change vs veh, ZNF638 /// ZNF638-IT1 / RFU, PANK3 / Fold change vs veh, PANK3 / RFU, SH3YL1 / Fold change vs veh, SH3YL1 / RFU, ZEB2 / Fold change vs veh, ZEB2 / RFU, NRIP1 / Fold change vs veh, NRIP1 / RFU, PTTG1IP / Fold change vs veh, PTTG1IP / RFU, CAPN2 / Fold change vs veh, CAPN2 / RFU, MED14 / Fold change vs veh, MED14 / RFU, SNORA58 / Fold change vs veh, SNORA58 / RFU, C1orf63 / Fold change vs veh, C1orf63 / RFU, LRRFIP1 / Fold change vs veh, LRRFIP1 / RFU, NDUFAF7 / Fold change vs veh, NDUFAF7 / RFU, SLC12A2 / Fold change vs veh, SLC12A2 / RFU, IBTK / Fold change vs veh, IBTK / RFU, ESF1 / Fold change vs veh, ESF1 / Fold change vs veh, TMEM50B / RFU, TAOK1 / Fold change vs veh, TAOK1 / RFU, ACBD3 / Fold change vs veh, ACBD3 / RFU, TMA16 / Fold change vs veh, TMA16 / RFU, RWDD3 / Fold change vs veh, RWDD3 / RFU, BCAT1 / Fold change vs veh, BCAT1 / RFU, EDEM3 / Fold change vs veh, EDEM3 / RFU, TMEM33 / Fold change vs veh, TMEM33 / RFU, WDR75 / Fold change vs veh, WDR75 / RFU, AHCTF1 / Fold change vs veh, AHCTF1 / RFU, TFRC / Fold change vs veh, TFRC / RFU, ZDHHC17 / Fold change vs veh, ZDHHC17 / RFU, NOM1 / Fold change vs veh, NOM1 / RFU, ARL8B / Fold change vs veh, ARL8B / RFU, ZBTB11 / Fold change vs veh, ZBTB11 / RFU, TAMM41 / Fold change vs veh, TAMM41 / RFU, KIAA1704 /// LOC100996395 / Fold change vs veh, KIAA1704 /// LOC100996395 / RFU, ING1 / Fold change vs veh, ING1 / RFU, TRMT61B / Fold change vs veh, TRMT61B / RFU, FUBP3 / Fold change vs veh, FUBP3 / RFU, TP53 / Fold change vs veh, TP53 / RFU, TNKS2 / Fold change vs veh, TNKS2 / RFU, ZFP14 / Fold change vs veh, ZFP14 / RFU, ACTR2 / Fold change vs veh, ACTR2 / RFU, PPP3R1 / Fold change vs veh, PPP3R1 / RFU, PIK3R1 / Fold change vs veh, PIK3R1 / RFU, HNRNPA1 / Fold change vs veh, HNRNPA1 / RFU, RNF170 / Fold change vs veh, RNF170 / RFU, ZNF28 / Fold change vs veh, ZNF28 / RFU, RNGTT / Fold change vs veh, RNGTT / RFU, OGT / Fold change vs veh, OGT / RFU, BRD1 / Fold change vs veh, BRD1 / RFU, MARS / Fold change vs veh, MARS / RFU, ZNF655 / Fold change vs veh, ZNF655 / RFU, FAHD1 / Fold change vs veh, FAHD1 / RFU, BDP1 / Fold change vs veh, BDP1 / RFU, LRRCC1 / Fold change vs veh, LRRCC1 / RFU, ARID1A / Fold change vs veh, ARID1A / RFU, ZNF146 / Fold change vs veh, ZNF146 / RFU, ZNF330 / Fold change vs veh, ZNF330 / RFU, GPN3 / Fold change vs veh, GPN3 / RFU, C9orf123 / Fold change vs veh, C9orf123 / RFU, N4BP2L2 / Fold change vs veh, N4BP2L2 / RFU, ARFIP1 / Fold change vs veh, ARFIP1 / RFU, FAM179B / Fold change vs veh, FAM179B / RFU, BCL10 / Fold change vs veh, BCL10 / RFU, UHRF1BP1L / Fold change vs veh, UHRF1BP1L / RFU, BET1 / Fold change vs veh, BET1 / RFU, CNOT2 / Fold change vs veh, CNOT2 / RFU, ZNF268 / Fold change vs veh, ZNF268 / Fold change vs veh, ZNF507 / RFU, DGCR2 / Fold change vs veh, DGCR2 / RFU, WDSUB1 / Fold change vs veh, WDSUB1 / Fold change vs veh, HSP90B1 /// MIR3652 / RFU, ADSS / Fold change vs veh, ADSS / RFU, GK / Fold change vs veh, GK / RFU, ZNF148 / Fold change vs veh, ZNF148 / RFU, TAF9 / Fold change vs veh, TAF9 / RFU, SLC1A5 / Fold change vs veh, SLC1A5 / RFU, SLMO2 / Fold change vs veh, SLMO2 / RFU, ABCC4 / Fold change vs veh, ABCC4 / RFU, LOC101060439 /// RAP1B / Fold change vs veh, LOC101060439 /// RAP1B / RFU, RFX7 / Fold change vs veh, RFX7 / RFU, GTPBP10 / Fold change vs veh, GTPBP10 / RFU, CNEP1R1 / Fold change vs veh, CNEP1R1 / RFU, BIVM-ERCC5 /// ERCC5 / Fold change vs veh, BIVM-ERCC5 /// ERCC5 / RFU, ILF3 / Fold change vs veh, ILF3 / RFU 11762660_at / Fold change /veh 11762660_at / RFU VCAN (11757783_s_at) / Fold change /veh VCAN (11757783_s_at) / RFU DDX43 (11728927_at) / Fold change /veh DDX43 (11728927_at) / RFU KRT8 (11758188_x_at) / Fold change /veh KRT8 (11758188_x_at) / RFU NKD1 (11759106_at) / Fold change /veh NKD1 (11759106_at) / RFU SRD5A1 (11742802_a_at) / Fold change /veh SRD5A1 (11742802_a_at) / RFU TPSAB1 /// TPSB2 (11721975_s_at) / Fold change /veh TPSAB1 /// TPSB2 (11721975_s_at) / RFU GSTM3 (11746129_a_at) / Fold change /veh GSTM3 (11746129_a_at) / RFU IL23R (11737362_x_at) / Fold change /veh IL23R (11737362_x_at) / RFU TMEM51 (11727254_a_at) / Fold change /veh TMEM51 (11727254_a_at) / RFU PIWIL2 (11732686_x_at) / Fold change /veh PIWIL2 (11732686_x_at) / RFU ORM1 (11744905_x_at) / Fold change /veh ORM1 (11744905_x_at) / RFU CCDC152 (11743942_at) / Fold change /veh CCDC152 (11743942_at) / RFU ECM1 (11717891_a_at) / Fold change /veh ECM1 (11717891_a_at) / RFU IL23R (11748794_a_at) / Fold change /veh IL23R (11748794_a_at) / RFU TNFAIP8L3 (11732012_x_at) / Fold change /veh TNFAIP8L3 (11732012_x_at) / RFU MBOAT4 (11741988_at) / Fold change /veh MBOAT4 (11741988_at) / RFU 11764193_at / Fold change /veh 11764193_at / RFU TMEM53 (11763286_at) / Fold change /veh TMEM53 (11763286_at) / RFU MAGEB2 (11727129_at) / Fold change /veh MAGEB2 (11727129_at) / RFU TMEM200A (11744735_a_at) / Fold change /veh TMEM200A (11744735_a_at) / RFU CCDC152 (11751479_a_at) / Fold change /veh CCDC152 (11751479_a_at) / RFU FAM211A (11726209_a_at) / Fold change /veh FAM211A (11726209_a_at) / RFU RGS16 (11746705_a_at) / Fold change /veh RGS16 (11746705_a_at) / RFU VCAN (11755009_s_at) / Fold change /veh VCAN (11755009_s_at) / RFU RHOB (11743442_s_at) / Fold change /veh RHOB (11743442_s_at) / RFU RGS16 (11720943_a_at) / Fold change /veh RGS16 (11720943_a_at) / RFU RGS16 (11720944_at) / Fold change /veh RGS16 (11720944_at) / RFU, VPS4B / Fold change vs veh, VPS4B / RFU, CREB1 / Fold change vs veh, CREB1 / RFU, DNAJC13 / Fold change vs veh, DNAJC13 / RFU, GNAQ / Fold change vs veh, GNAQ / RFU, CDK5R1 / Fold change vs veh, CDK5R1 / RFU, ZRANB3 / Fold change vs veh, ZRANB3 / RFU, CUL4A / Fold change vs veh, CUL4A / RFU, CCNY / Fold change vs veh, CCNY / RFU, UFL1 / Fold change vs veh, UFL1 / RFU, COG3 / Fold change vs veh, COG3 / RFU, DIAPH2 / Fold change vs veh, DIAPH2 / RFU, SKA2 / Fold change vs veh, SKA2 / RFU, AFF3 / Fold change vs veh, AFF3 / RFU, LMF1 / Fold change vs veh, LMF1 / RFU, IPO11 / Fold change vs veh, IPO11 / RFU, DFFB / Fold change vs veh, DFFB / RFU, FOXP1 / Fold change vs veh, FOXP1 / RFU, CARD8 / Fold change vs veh, CARD8 / RFU, STRN3 / Fold change vs veh, STRN3 / RFU, ADK / Fold change vs veh, ADK / RFU, RASSF2 / Fold change vs veh, RASSF2 / RFU, WIPF1 / Fold change vs veh, WIPF1 / RFU, LARP1B / Fold change vs veh, LARP1B / RFU, RASA1 / Fold change vs veh, RASA1 / RFU, RB1 / Fold change vs veh, RB1 / RFU, PPFIA1 / Fold change vs veh, PPFIA1 / RFU, MAT2A / Fold change vs veh, MAT2A / RFU, CCT5 / Fold change vs veh, CCT5 / RFU, WDR92 / Fold change vs veh, WDR92 / RFU, CUX1 / Fold change vs veh, CUX1 / RFU, TTC7A / Fold change vs veh, TTC7A / RFU, TMEM135 / Fold change vs veh, TMEM135 / RFU, DEPTOR / Fold change vs veh, DEPTOR / RFU, CPM / Fold change vs veh, CPM / RFU, DNAJB6 / Fold change vs veh, DNAJB6 / RFU, CACNA2D3 / Fold change vs veh, CACNA2D3 / RFU, DTX4 / Fold change vs veh, DTX4 / RFU, TFCP2 / Fold change vs veh, TFCP2 / RFU, GMCL1 /// GMCL1P1 / Fold change vs veh, GMCL1 /// GMCL1P1 / RFU, AEBP2 / Fold change vs veh, AEBP2 / RFU, SNHG1 /// SNORD22 /// SNORD25 /// SNORD26 /// SNORD27 /// SNORD28 /// SNORD29 /// SNORD31 / Fold change vs veh, SNHG1 /// SNORD22 /// SNORD25 /// SNORD26 /// SNORD27 /// SNORD28 /// SNORD29 /// SNORD31 / Fold change (Aza/veh), C12orf56 (ProbeSet 11735607_a_at) / Fold change (ACY-1035/veh), C12orf56 (ProbeSet 11735607_a_at) / Fold change (Aza/veh), FGFR1OP (ProbeSet 11751329_s_at) / Fold change (ACY-1035/veh), FGFR1OP (ProbeSet 11751329_s_at) / Fold change (Aza/veh), VPS36 (ProbeSet 11739960_a_at) / Fold change (ACY-1035/veh), VPS36 (ProbeSet 11739960_a_at) / RFU SYPL1 (11715823_x_at) / Fold change /veh SYPL1 (11715823_x_at) / RFU IGFBP7 (11715501_s_at) / Fold change /veh IGFBP7 (11715501_s_at) / RFU REEP3 (11722064_at) / Fold change /veh REEP3 (11722064_at) / RFU IGLL1 (11728026_x_at) / Fold change /veh IGLL1 (11728026_x_at): dose or concentration left out as unconfirmed
Details: MV-4-11 cells, 48 hours

Nc1ncn([C@@H]2O[C@H](CO)[C@@H](O)[C@H]2O)c(=O)n1 [azacitidine]
RFU SOX15 (11748057_x_at): 12.99 RFU
